Several values for one entry are separate records, joined by “and”; a condition that tells them apart may be missing. Equal entries are not always repeated. Toxic doses and inconclusive results are not listed.

In this assay the test system is CD2F1 mice, L1210 leukemia ip, survival T/C. The assay is described as follows: NCI In Vivo Anticancer Drug Screen. Data for tumor model L1210 Leukemia (intraperitoneal) in CD2F1 (CDF1) mice. The following applies: higher = longer survival. The method in brief: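 Compound-dosed mice with transplantable tumor versus matched vehicle controls; endpoint ratio T/C reported.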

The mark [1] stands for this setting: endpoint: mean survival time, dose: 25.0 mg/kg/injection, schedule: Q01DX009 (ip), vehicle: Klucel (hydroxypropylcellulose) (HPC).
[2] abbreviates: endpoint: mean survival time, dose: 50.0 mg/kg/injection, schedule: Q01DX009 (ip), vehicle: Klucel (hydroxypropylcellulose) (HPC).
The mark [3] stands for this setting: endpoint: mean survival time, dose: 100.0 mg/kg/injection, schedule: Q01DX009 (ip), vehicle: Klucel (hydroxypropylcellulose) (HPC).
Where [4] appears, read: endpoint: mean survival time, dose: 100.0 mg/kg/injection, schedule: Q04DX003 (ip), vehicle: saline with Tween-80.
Setting [5] is: endpoint: mean survival time, dose: 200.0 mg/kg/injection, schedule: Q04DX003 (ip), vehicle: saline with Tween-80.
The mark [6] stands for this setting: endpoint: mean survival time, dose: 50.0 mg/kg/injection, schedule: Q01DX009 (ip), vehicle: saline with Tween-80.
Setting [7] is: endpoint: mean survival time, dose: 100.0 mg/kg/injection, schedule: Q01DX009 (ip), vehicle: saline with Tween-80.
The mark [8] stands for this setting: endpoint: mean survival time, dose: 200.0 mg/kg/injection, schedule: Q01DX009 (ip), vehicle: saline with Tween-80.
The mark [9] stands for this setting: endpoint: mean survival time, dose: 400.0 mg/kg/injection, schedule: Q01DX009 (ip), vehicle: saline with Tween-80.
Setting [10] is: endpoint: mean survival time, dose: 400.0 mg/kg/injection, schedule: Q04DX003 (ip), vehicle: saline with Tween-80.

In the case of `O=C1C2C3C=CC(C2C(=O)N1CO)C1C2C(=O)N(CO)C(=O)C2C31` (centres undefined), the T/C runs as follows: (endpoint: median survival time, dose: 6.25 mg/kg/injection, schedule: Q01DX009 (ip), vehicle: water) 104 % of control; (endpoint: median survival time, dose: 12.5 mg/kg/injection, schedule: Q01DX009 (ip), vehicle: water) 107 % of control; (endpoint: median survival time, dose: 25.0 mg/kg/injection, schedule: Q01DX009 (ip), vehicle: water) 124 % of control; (endpoint: median survival time, dose: 50.0 mg/kg/injection, schedule: Q01DX009 (ip), vehicle: water) 190 % of control and 214 % of control; (endpoint: median survival time, dose: 83.3 mg/kg/injection, schedule: Q01DX009 (ip), vehicle: water) 100 % of control.
Turning to `CCCC(=O)OCc1cc(=O)n(C)c2c3c4c(cc12)c(C)cc(=O)n4CO3`, the T/C (endpoint: mean survival time, dose: 1.56 mg/kg/injection, schedule: Q01DX009 (ip), vehicle: Klucel (hydroxypropylcellulose) (HPC)) is 97 % of control; the T/C (endpoint: mean survival time, dose: 3.12 mg/kg/injection, schedule: Q01DX009 (ip), vehicle: Klucel (hydroxypropylcellulose) (HPC)) was 106 % of control and 112 % of control; the T/C (endpoint: mean survival time, dose: 6.25 mg/kg/injection, schedule: Q01DX009 (ip), vehicle: Klucel (hydroxypropylcellulose) (HPC)) is 116 % of control and 105 % of control and 109 % of control; the T/C (endpoint: mean survival time, dose: 12.5 mg/kg/injection, schedule: Q01DX009 (ip), vehicle: Klucel (hydroxypropylcellulose) (HPC)) is 113 % of control and 107 % of control and 110 % of control; the T/C under setting [1] is 117 % of control and 119 % of control and 124 % of control; the T/C under setting [2] is 118 % of control and 124 % of control. For the same compound, the T/C under setting [3] is 96 % of control.
As to `NC(CCCCNC(c1ccccc1)(c1ccccc1)c1ccccc1)C(=O)O` (centres undefined), the T/C by setting is: (endpoint: mean survival time, dose: 25.0 mg/kg/injection, schedule: Q01DX009 (ip), vehicle: saline) 96 % of control; (endpoint: mean survival time, dose: 50.0 mg/kg/injection, schedule: Q01DX009 (ip), vehicle: saline) 94 % of control; (endpoint: mean survival time, dose: 100.0 mg/kg/injection, schedule: Q01DX009 (ip), vehicle: saline) 103 % of control.
With `Cc1c2ccccc2c(CSCCC(N)C(=O)O)c2ccc3ccccc3c12` (centres undefined), the T/C is 96 % of control under setting [4] and 87 % of control under setting [5].
Regarding `CN(C)[C@@H]1C(=O)C(C(N)=O)=C(O)[C@]2(O)C(=O)C3C(=O)c4c(O)ccc(Cl)c4[C@](C)(O)[C@H]3C[C@@H]12` (some centres undefined), the T/C was 107 % of control under setting [2]; 118 % of control under setting [3]; 101 % of control (endpoint: mean survival time, dose: 225.0 mg/kg/injection, schedule: Q01DX009 (ip), vehicle: acetone).
On to `O=C(O)/C=C/C1=CCCCC1`, for which the T/C under setting [6] is 101 % of control, the T/C under setting [7] is 93 % of control and the T/C under setting [8] was 93 % of control.
On to `CC(=O)Nc1ccccc1C(C)=O`, for which the T/C is, setting by setting: under setting [7], 110 % of control; under setting [8], 109 % of control.
On to `NCCCN1CCCCC1`, for which the T/C reads like this: (endpoint: mean survival time, dose: 100.0 mg/kg/injection, schedule: Q04DX002 (ip), vehicle: saline) 102 % of control; (endpoint: mean survival time, dose: 200.0 mg/kg/injection, schedule: Q04DX002 (ip), vehicle: saline) 95 % of control; (endpoint: mean survival time, dose: 400.0 mg/kg/injection, schedule: Q04DX002 (ip), vehicle: saline) 102 % of control.
`CCC([NH-])(CC)C[NH-].[Cl][Pt+2][Cl]`: the T/C reads like this: (endpoint: mean survival time, dose: 0.39 mg/kg/injection, schedule: Q04DX003 (ip), vehicle: saline with Tween-80) 101 % of control; (endpoint: mean survival time, dose: 0.79 mg/kg/injection, schedule: Q04DX003 (ip), vehicle: saline with Tween-80) 102 % of control; (endpoint: mean survival time, dose: 1.56 mg/kg/injection, schedule: Q04DX003 (ip), vehicle: saline with Tween-80) 107 % of control; (endpoint: mean survival time, dose: 3.12 mg/kg/injection, schedule: Q04DX003 (ip), vehicle: saline with Tween-80) 108 % of control; (endpoint: mean survival time, dose: 3.13 mg/kg/injection, schedule: Q04DX003 (ip), vehicle: saline) 232 % of control; (endpoint: mean survival time, dose: 6.25 mg/kg/injection, schedule: Q04DX003 (ip), vehicle: saline) 208 % of control. Further, the T/C (endpoint: mean survival time, dose: 25.0 mg/kg/injection, schedule: Q04DX003 (ip), vehicle: saline with Tween-80) is 111 % of control.
On to `[Br][OsH].[C-]#[O+].c1ccc([PH+](c2ccccc2)c2ccccc2)cc1.c1ccc([PH+](c2ccccc2)c2ccccc2)cc1.c1ccc([PH+](c2ccccc2)c2ccccc2)cc1`, for which the T/C was 91 % of control (endpoint: mean survival time, dose: 100.0 mg/kg/injection, schedule: Q04DX002 (ip), vehicle: saline with Tween-80); 87 % of control (endpoint: mean survival time, dose: 200.0 mg/kg/injection, schedule: Q04DX002 (ip), vehicle: saline with Tween-80); 87 % of control (endpoint: mean survival time, dose: 400.0 mg/kg/injection, schedule: Q04DX002 (ip), vehicle: saline with Tween-80).
For `COc1c2occc2c(OC)c2c(=O)cc(/C=C/c3ccccn3)oc12`, the T/C reads like this: (endpoint: mean survival time, dose: 100.0 mg/kg/injection, schedule: Q01DX001 (ip), vehicle: saline) 98 % of control; (endpoint: mean survival time, dose: 200.0 mg/kg/injection, schedule: Q01DX001 (ip), vehicle: saline) 101 % of control; (endpoint: mean survival time, dose: 400.0 mg/kg/injection, schedule: Q01DX001 (ip), vehicle: saline) 98 % of control.
As to `O=c1cn[nH]c2c(F)cccc12`, the T/C was 97 % of control (endpoint: mean survival time, dose: 100.0 mg/kg/injection, schedule: Q01DX001 (ip), vehicle: other); 104 % of control (endpoint: mean survival time, dose: 200.0 mg/kg/injection, schedule: Q01DX001 (ip), vehicle: other); 98 % of control (endpoint: mean survival time, dose: 400.0 mg/kg/injection, schedule: Q01DX001 (ip), vehicle: other).
For the compound `CCOC(=O)Nc1cc2c(c(N)n1)N=C(c1ccc(Cl)cc1)CN2`, the T/C (endpoint: mean survival time, dose: 3.0 mg/kg/injection, schedule: Q01DX009 (ip), vehicle: Klucel (hydroxypropylcellulose) (HPC)) was 110 % of control; the T/C (endpoint: mean survival time, dose: 6.0 mg/kg/injection, schedule: Q01DX009 (ip), vehicle: Klucel (hydroxypropylcellulose) (HPC)) was 110 % of control; the T/C (endpoint: mean survival time, dose: 12.0 mg/kg/injection, schedule: Q01DX009 (ip), vehicle: Klucel (hydroxypropylcellulose) (HPC)) is 114 % of control; the T/C (endpoint: mean survival time, dose: 12.5 mg/kg/injection, schedule: Q01DX001 (ip), vehicle: Klucel (hydroxypropylcellulose) (HPC)) was 102 % of control; the T/C (endpoint: mean survival time, dose: 25.0 mg/kg/injection, schedule: Q01DX001 (ip), vehicle: Klucel (hydroxypropylcellulose) (HPC)) was 111 % of control; the T/C under setting [1] was 110 % of control. Also, the T/C is, setting by setting: (endpoint: mean survival time, dose: 50.0 mg/kg/injection, schedule: Q01DX001 (ip), vehicle: Klucel (hydroxypropylcellulose) (HPC)) 114 % of control; (endpoint: mean survival time, dose: 100.0 mg/kg/injection, schedule: Q01DX001 (ip), vehicle: Klucel (hydroxypropylcellulose) (HPC)) 116 % of control.
On to `CC[C@@]1(O)C[C@H](OC2CC(N(C)C)C(OC3CC(O)C(OC4CCC(=O)C(C)O4)C(C)O3)C(C)O2)c2c(cc3c(c2O)C(=O)c2c(O)ccc(O)c2C3=O)[C@H]1C(=O)OC` (some centres undefined), for which the T/C by setting is: (endpoint: mean survival time, dose: 0.25 mg/kg/injection, schedule: Q01DX009 (ip), vehicle: water) 101 % of control and 109 % of control; (endpoint: mean survival time, dose: 0.5 mg/kg/injection, schedule: Q01DX009 (ip), vehicle: water) 113 % of control and 117 % of control and 119 % of control; (endpoint: mean survival time, dose: 1.0 mg/kg/injection, schedule: Q01DX009 (ip), vehicle: water) 122 % of control; (endpoint: mean survival time, dose: 4.0 mg/kg/injection, schedule: Q01DX009 (ip), vehicle: water) 89 % of control.
Consider `Cc1cccc(/C=N\N=C\c2cccc(C)n2)n1`, for which the T/C is 96 % of control under setting [7]; 95 % of control under setting [4]; 90 % of control under setting [8]; 91 % of control under setting [5]; 98 % of control under setting [9]; 107 % of control under setting [10].
`O=[N+]([O-])c1ccc(N/N=C2/C3CCC(C3)C2C(O)(C(F)(F)F)C(F)(F)F)c([N+](=O)[O-])c1` (centres undefined): the T/C by setting is: (endpoint: mean survival time, dose: 50.0 mg/kg/injection, schedule: Q04DX003 (ip), vehicle: saline with Tween-80) 94 % of control; under setting [4], 95 % of control; under setting [5], 94 % of control; under setting [10], 103 % of control.
Regarding `CC(=O)C1CCC2C3=CC=C4CC(OC(=O)CCC(C)C)CCC4(C)C3CCC12C` (centres undefined), the T/C is 105 % of control under setting [7], 97 % of control under setting [8] and 101 % of control under setting [9].
For the compound `O=C(COc1ccccc1)NC(=S)Nc1ccc(Cl)cc1Cl`, the T/C is, setting by setting: (endpoint: mean survival time, dose: 25.0 mg/kg/injection, schedule: Q01DX009 (ip), vehicle: saline with Tween-80) 100 % of control; under setting [6], 100 % of control.
In the case of `COC(=O)C(=O)c1ccccc1`, the T/C is 96 % of control (endpoint: mean survival time, dose: 100.0 mg/kg/injection, schedule: Q04DX003 (ip), vehicle: saline); 102 % of control (endpoint: mean survival time, dose: 200.0 mg/kg/injection, schedule: Q04DX003 (ip), vehicle: saline); 103 % of control (endpoint: mean survival time, dose: 400.0 mg/kg/injection, schedule: Q04DX003 (ip), vehicle: saline).

These data come from PubChem BioAssay AID256 (DTP/NCI, 2004).
